Test results from patent US20260275280A1, “DIRECTED DIFFERENTIATION PROTOCOLS TO DERIVE BONE FIDE SPINAL SENSORY INTERNEURONS” (THE REGENTS OF THE UNIVERSITY OF CALIFORNIA, priority 2022, published 2026).

Key:
hESCs/hiPSCs = test: Induction of NMPs from hPSCs in 2D culture (FGF2, CHIR99021); format: cell-based, human; details: N2/B27 with FGF2 and CHIR99021, up to day 6
Protocol: Add 2 mL N2/B27 media containing 10ng of FGF2 and SuM of CHIR99021 (Wnt signaling agonist) to each well of the 6-well plate and return the plate to the incubator. Feed cells every other day with N2/B27 media for up to 6 days. Cells should appear as a monolayer with cells packed together tightly at the end of day 6 (FIG. 16A). This confluency is optimal for embryoid body (EB) formation in the next step.

mESC-derived NPCs = test: Expansion culture: serial passaging of RA±BMP4 patterned EBs in CHIR or DMSO; format: cell-based, mouse
Protocol: For expansion cultures. EBs were dissociated in single cell suspension at day 6 by treating with 0.25% Trypsin, followed by trituration to break up the larger cell clumps. Cells were pelleted and passaged in N2/B27 medium containing either DMSO or 5 μM CHIR at 1:3 dilution. Media was changed at every third day during the expansion culture.
Finally, we assessed whether the mitogenic properties of Wnt signaling can be leveraged to expand the pool of mESC-derived NPCs. RA±BMP4 patterned EBs were serially passaged at 1:3 dilution […] in the presence of DMSO (control) or CHIR (FIG. 7A).
Embryonic stem cells are first directed to a day 4 neural precursor cell (NPC) state, and then Wnt signaling is continually switched on using CHIR, which starts the process of proliferation. The cells are then passaged every 6 days. with a 1:3 split. Control NPCs die almost immediately, while “expanded” cells keep dividing for as long as they have been passaged to date (three months). These NPCs can then be differentiated. Differentiation of the expanded cultures without any further signals yields dI3s and dI5s. A further pulse for two days with RA (day 3-5), produces dI4, dI5 and dI6. Pulsing them with RA+BMP4, yields dI1, dI2 and dW3.
Thus, a method of keeping dorsal progenitors (dPs) in a proliferative state for many passages (perhaps indefinitely) is provided. The proliferative state can be maintained without changing the fate potential of the dPs. mESCs are first patterned according to either the RA or RA+BMP4 protocol, up to day 6. After patterning, the dPs are then reintroduced to medium containing CHIR (Wnt agonist, that stimulates Wnt signaling). The CHIR-treated cultures can then serially expand 3-fold every 6 days (a passage), unlike control (DMSO-treated) cells, which start dying at passage 2 (FIG. 7). To date we have expanded dPs for 7-8 passages, i.e. a couple of months.

mESCs-derived NMPs = test: 2D directed differentiation of NMPs with RA/BMP4, immunohistochemistry (pSmad1/5/8, Pax3, Pax6, Sox2, Tuj1, Pax2); format: cell-based, mouse; details: 24 hr pulse of RA at day 3
Protocol: The mouse ESC line, MM13, was routinely maintained in ES cell media (DMEM+20% FBS) with 100u/ml of mouse leukocyte inducing factor (LIF). […] To prepare cells for the differentiation, ESC colonies were dissociated with 0.25% trypsin and plated on gelatin coated plates at 1:10 dilution to reduce MEF transfer. Cells cultured on gelatin coated plates and allowed to proliferate for 1-2 days. To initiate differentiation, cells were plated on 0.1% gelatin coated 24-well CellBIND dishes (Corning) at 20,000 cells/ml density in 0.5 ml/well N2/B27 medium that contains 10 ng/ml basic fibroblast growth factor (bFGF). The N2/B27 medium contains 1:1 portions of Advanced Dulbecco's modified Eagle Media (DMEM) F12 (Hyclone) and Neurobasal media (Thermo Fisher Scientific) supplemented with 0.5×N2, 1×B27 supplement (with Vitamin A), 2 mM L-glutamine, 0.1 mM 2-mercaptoethanol (ME), and 1% BSA. On day 1, small colonies of cells can be observed attached to the bottom of the wells. On day 2, cells were supplemented with 10 ng/ml bFGF and 5 μM CHIR99021 for 24 hours to induce a neuromesodermal identity (Gouti et al., 2014). On day 3, media was changed as follows: for protocol 1, cells were exposed to 100 nM RA for 48 hrs. […] At the end of the differentiation, the cultures were fixed for immunohistochemical analysis or lysed to obtain RNA for RNA-Seq or quantitative reverse transcriptase PCR analysis. […]

Structure (SMILES)	growth rate of the hPSC/NMP monolayer (hESCs/hiPSCs)	EB size over three consecutive passages (mESC-derived NPCs; CHIR vs DMSO, RA and RA+BMP4 patterned EBs)	Sox2+ NPC identity after passaging (mESC-derived NPCs; CHIR-treated EBs)	serial expansion of CHIR-treated cultures every 6 days (a passage) (mESC-derived NPCs; Example 2)	increase in the number of EBs after each passage compared to DMSO-treated EBs (mESC-derived NPCs; RA- and RA+BMP4-treated EBs)	increase in the number of CHIR-treated EBs by the third passage (mESC-derived NPCs; passaged 1:3 every 7 days)	Pax3+ cells by day 4 (mESCs-derived NMPs)
Cc1c[nH]c(-c2cnc(NCCNc3ccc(C#N)cn3)nc2-c2ccc(Cl)cc2Cl)n1 [CHIR, CHIR99021]	induces a higher growth rate in the monolayer	decrease in EB size	remained Sox2^+ after multiple passages	3 fold	> 6 fold	3- to 6 fold	
CC1=C(/C=C/C(C)=C/C=C/C(C)=C/C(=O)O)C(C)(C)CCC1 [RA, retinoic acid]							90-95%
